Assay results reported in patent US10654818B2, “Furane derivatives as inhibitors of ATAD2” (BAYER PHARMA AKTIENGESELLSCHAFT, priority 2015, dated 2020).

Assays:
MCF7 breast cancer cells = experiment: Cell proliferation assay (alamarBlue), MCF7; assay type: cell-based; conditions: Homo sapiens, 72 h incubation, GI50 = half-maximal growth inhibition
Procedure: (§1) The effect of ATAD2 inhibitory compounds on cancer cell proliferation might be measured as below. For example; MCF7 breast cancer cells might be seeded into 96-well microtiter plates at 2000 cells/well in 90 μl cell culture media (RPMI 1640, 10% FCS, 2 mM L-Glutamine, 10 μg/ml human Insulin, […]) and incubated for 24 h at 37° C. and 5% CO2. Note, the culturing conditions might vary from cell line to cell line depending on their standard culturing conditions. Compounds might be then delivered to the microtiter assay plates and, following a 72 h long incubation period at 37° C. and 5% CO2, the viability of the cells might be measured with addition of alamarBlue® (Invitrogen) to the medium in Victor X3 Multilabel Plate Reader (Perkin Elmer).
(§2) GI50 means half-maximal growth inhibition.

NCl-H526 lung cancer = experiment: Cell proliferation assay (alamarBlue), NCl-H526; assay type: cell-based; conditions: GI50 = half-maximal growth inhibition
Procedure: as §1, §2

[1] = target: T1, recombinant, N-terminally GST-tagged ATAD2 bromodomain amino acids 981-1108 (Homo sapiens, UniProt Q6PL18); experiment: TR-FRET assay: disruption of the interaction between ATAD2 and acetylated Histone H4 (Ac-H4) peptide; assay type: binding; conditions: inhibition of ATAD2/Ac-H4 complex formation; 10 nM ATAD2, 50 nM Ac-H4 peptide
T1 construct: ATAD2 bromodomain amino acids 981-1108; made in house; host or cells: E. coli
T1 sequence (Q6PL18 981-1108): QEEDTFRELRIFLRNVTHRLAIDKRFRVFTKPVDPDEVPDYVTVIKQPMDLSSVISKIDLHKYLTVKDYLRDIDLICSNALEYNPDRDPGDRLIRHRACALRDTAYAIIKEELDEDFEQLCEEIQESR
Procedure, shortened: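 10 nM protein (final) pre-incubated 10 min at 22 °C with compound (0.1 nM-20 μM, 11 points, duplicate), then 50 nM biotinylated Ac-H4 peptide plus anti-GST-XL665/streptavidin-Eu added for 1 h at 22 °C in HEPES pH 7.5 buffer. 665/622 nm emission ratio read; IC50 from 4-parameter fit of normalized inhibition.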

GI50 (MCF7 breast cancer cells) | GI50 (NCl-H526 lung cancer) | IC50 [1] | SMILES
3.18 µM | 1.25 µM | 0.107 µM | Cc1ccc([C@@H](C)NCc2ccc(-c3ccc(Cl)c(C(=O)N[C@@H](CN[C@H]4CC[C@@H](N)CC4)Cc4ccc(C#N)cc4)c3)o2)cc1 (single isomer, unassigned) [Example 71]
11.5 µM | 15.4 µM | 0.393 µM | Cc1ccc([C@@H](C)NCc2ccc(-c3ccc(Cl)c(C(=O)N[C@@H](CO)Cc4ccc(C#N)cc4)c3)o2)cc1 [Example 4, 2-chloro-N-[(2R)-1-(4-cyanophenyl)-3-hydroxypropan-2-yl]-5-[5-({[(1R)-1-(4-methylphenyl)ethyl]amino}methyl)-2-furyl]benzamide]
1.42 µM | 1.25 µM | 0.184 µM | Cc1ccc([C@@H](C)NCc2ccc(-c3ccc(Cl)c(C(=O)N[C@@H](CCNCC4CCN(C)CC4)Cc4ccc(C#N)cc4)c3)o2)cc1 [Example 33, 2-chloro-N-[(2R)-1-(4-cyanophenyl)-4-{[(1-methylpiperidin-4-yl)methyl]amino}butan-2-yl]-5-[5-({[(1R)-1-(4-methylphenyl)ethyl]amino}methyl)-2-furyl]benzamide]
1.28 µM | 1.29 µM | 0.186 µM | Cc1ccc([C@@H](C)NCc2ccc(-c3ccc(Cl)c(C(=O)N[C@@H](CCN4CC5(CN(C)C5)C4)Cc4ccc(C#N)cc4)c3)o2)cc1 [Example 36, 2-chloro-N-[(2R)-1-(4-cyanophenyl)-4-(6-methyl-2,6-diazaspiro[3.3]hept-2-yl)butan-2-yl]-5-[5-({[(1R)-1-(4-methylphenyl)ethyl]amino}methyl)-2-furyl]benzamide]
11.9 µM | > 30 µM | 1.1 µM | Cc1ccc([C@@H](C)NCc2ccc(-c3ccc(Cl)c(C(=O)N[C@@H](C)Cc4ccc(C#N)cc4)c3)o2)cc1 [Example 42, 2-chloro-N-[(2S)-1-(4-cyanophenyl)propan-2-yl]-5-[5-({[(1R)-1-(4-methylphenyl)ethyl]amino}methyl)-2-furyl]benzamide]
2.51 µM | 3.6 µM | 0.273 µM | Cc1ccc([C@@H](C)NCc2ccc(-c3ccc(Cl)c(C(=O)N[C@@H](CN)Cc4ccc(C#N)cc4)c3)o2)cc1 [Example 53, N-[(2R)-1-amino-3-(4-cyanophenyl)propan-2-yl]-2-chloro-5-[5-({[(1R)-1-(4-methylphenyl)ethyl]amino}methyl)-2-furyl]benzamide]
3.76 µM | 5.1 µM | 0.245 µM | Cc1ccc([C@@H](C)NCc2ccc(-c3ccc(Cl)c(C(=O)N[C@@H](CNC[C@@H]4[C@H]5CNC[C@@H]45)Cc4ccc(C#N)cc4)c3)o2)cc1 [Example 66, N-[(2R)-1-{[(1R,5S,6r)-3-azabicyclo[3.1.0]hex-6-ylmethyl]amino}-3-(4-cyanophenyl)propan-2-yl]-2-chloro-5-[5-({[(1R)-1-(4-methylphenyl)ethyl]amino}methyl)-2-furyl]benzamide]
 |  | 0.671 µM | CC(C)(NCc1ccc(-c2ccc(Cl)c(C(=O)N[C@@H](CN)Cc3ccc(C#N)cc3)c2)o1)c1ccc(C(F)(F)F)cc1 [Example 74, N-[(2R)-1-amino-3-(4-cyanophenyl)propan-2-yl]-2-chloro-5-{5-[({2-[4-(trifluoro-methyl)phenyl]propan-2-yl}amino)methyl]-2-furyl}benzamide]
 |  | 0.567 µM | C[C@@H](NCc1ccc(-c2ccc(Cl)c(C(=O)N[C@@H](CN)Cc3ccc(C#N)cc3)c2)o1)c1ccc(C(F)(F)F)cc1 [Example 75, N-[(2R)-1-amino-3-(4-cyanophenyl)propan-2-yl]-2-chloro-5-{5-[({(1R)-1-1-[4-(trifluoromethyl)phenyl]ethyl}amino)methyl]-2-furyl}benzamide]
 |  | 0.598 µM | Cc1ccc([C@@H](C)NCc2ccc(-c3cc(F)c(Cl)c(C(=O)N[C@@H](CO)Cc4ccc(C#N)cc4)c3)o2)cc1 [Example 77, 2-chloro-N-[(2R)-1-(4-cyanophenyl)-3-hydroxypropan-2-yl]-3-fluoro-5-[5-({[(1R)-1-(4-methylphenyl)ethyl]amino}methyl)-2-furyl]benzamide]
 |  | 1.23 µM | Cc1ccc([C@@H](C)NCc2ccc(-c3cc(C(=O)N[C@@H](CO)Cc4ccc(C#N)cc4)c(Cl)cc3Cl)o2)cc1 [Example 78, 2,4-dichloro-N-[(2R)-1-(4-cyanophenyl)-3-hydroxypropan-2-yl]-5-[5-({[(1R)-1-(4-methylphenyl)ethyl]amino}methyl)-2-furyl]benzamide]
 |  | 1.4 µM | Cc1ccc([C@@H](C)NCc2ccc(-c3cc(C(=O)N[C@@H](CO)Cc4ccc(C#N)cc4)ccc3C#N)o2)cc1 [Example 79, 4-cyano-N-[(2R)-1-(4-cyanophenyl)-3-hydroxypropan-2-yl]-3-[5-({[(1R)-1-(4-methylphenyl)ethyl]amino}methyl)-2-furyl]benzamide]
 |  | 0.407 µM | COc1cc(C)c(C(=O)N[C@@H](CO)Cc2ccc(C#N)cc2)cc1-c1ccc(CN[C@H](C)c2ccc(C)cc2)o1 [Example 80, N-[(2R)-1-(4-cyanophenyl)-3-hydroxypropan-2-yl]-4-methoxy-2-methyl-5-[5-({[(1R)-1-(4-methylphenyl)ethyl]amino}methyl)-2-furyl]benzamide]
 |  | 0.35 µM | COc1cc(Cl)c(C(=O)N[C@@H](CO)Cc2ccc(C#N)c(C)c2)cc1-c1ccc(CN[C@H](C)c2ccc(C)cc2)o1 [Example 82]
 |  | 0.233 µM | COc1cc(Cl)c(C(=O)N[C@@H](CN)Cc2ccc(C#N)cc2)cc1-c1ccc(CN[C@H](C)c2ccc(C)cc2)o1 [Example 83, N-[(2R)-1-amino-3-(4-cyanophenyl)propan-2-yl]-2-chloro-4-methoxy-5-[5-({[(1R)-1-(4-methylphenyl)ethyl]amino}methyl)-2-furyl]benzamide]
 |  | 0.27 µM | COc1cc(Cl)c(C(=O)N[C@@H](CN)Cc2ccc(C#N)c(C)c2)cc1-c1ccc(CN[C@H](C)c2ccc(C)cc2)o1 [Example 84, N-[(2R)-1-amino-3-(4-cyano-3-methylphenyl)propan-2-yl]-2-chloro-4-methoxy-5-[5-({[(1R)-1-(4-methylphenyl)ethyl]amino}methyl)-2-furyl]benzamide]
 |  | 0.415 µM | COc1cc(Cl)c(C(=O)N[C@H](Cc2ccc(C#N)cc2)C(=O)N[C@H]2CC[C@H](N)CC2)cc1-c1ccc(CN[C@H](C)c2ccc(C)cc2)o1 [Example 85, N-(trans-4-aminocyclohexyl)-Nα-{2-chloro-4-methoxy-5-[5-({[(1R)-1-(4-methylphenyl)ethyl]amino}methyl)-2-furyl]benzoyl}-4-cyano-D-phenylalaninamide]
 |  | 0.216 µM | COc1cc(Cl)c(C(=O)N[C@@H](CN[C@H]2CC[C@@H](N)CC2)Cc2ccc(C#N)cc2)cc1-c1ccc(CN[C@H](C)c2ccc(C)cc2)o1 [Example 87, N-[(2R)-1-[(4-aminocyclohexyl)amino]-3-(4-cyanophenyl)propan-2-yl]-2-chloro-4-methoxy-5-[5-({[(1R)-1-(4-methylphenyl)ethyl]amino}methyl)-2-furyl]benzamide]
 |  | 0.128 µM | COc1cc(Cl)c(C(=O)N[C@@H](CN[C@H]2CC[C@@H](N)CC2)Cc2ccc(C#N)c(C)c2)cc1-c1ccc(CN[C@H](C)c2ccc(C)cc2)o1 [Example 88, N-[(2R)-1-[(4-aminocyclohexyl)amino]-3-(4-cyano-3-methylphenyl)propan-2-yl]-2-chloro-4-methoxy-5-[5-({[(1R)-1-(4-methylphenyl)ethyl]amino}methyl)-2-furyl]-benzamide]
 |  | 2.06 µM | CNC(=O)C[C@@H](Cc1ccc(C#N)cc1)NC(=O)c1cc(-c2ccc(CN[C@H](C)c3ccc(Cl)cc3)o2)ccc1Cl [Example 89, 2-chloro-5-[5-({[(1R)-1-(4-chlorophenyl)ethyl]amino}methyl)-2-furyl]-N-[(2R)-1-(4-cyanophenyl)-4-(methylamino)-4-oxobutan-2-yl]benzamide]
 |  | 13.4 µM | CNC(=O)C[C@@H](Cc1ccc(C#N)cc1)NC(=O)c1ccc(C#N)c(-c2ccc(CN[C@H](C)c3ccc(C)cc3)o2)c1 [Example 91]
 |  | 8.37 µM | CNC(=O)C[C@@H](Cc1ccccc1)NC(=O)c1cc(-c2ccc(CN[C@H](C)c3ccc(C)cc3)o2)ccc1Cl [Example 92]
 |  | 7.69 µM | CNC(=O)C[C@@H](Cc1ccc(C#N)cc1)NC(=O)c1cc(-c2ccc(CNC(C)(C)c3ccccc3)o2)ccc1Cl [Example 93]
 |  | 2.98 µM | CNC(=O)C[C@@H](Cc1ccc(C#N)cc1)NC(=O)c1cc(-c2ccc(CNC(C)(C)c3ccc(C)cc3)o2)ccc1Cl [Example 94]
 |  | 2.82 µM | CC(C)(NCc1ccc(-c2ccc(Cl)c(C(=O)NC(Cc3ccc(C#N)cc3)C(N)=O)c2)o1)c1ccc(Cl)cc1 (stereo not shown) [Example 95]
 |  | 2.65 µM | Cc1ccc([C@@H](C)NCc2ccc(-c3ccc(Cl)c(C(=O)N[C@@H](CO)Cc4ccccc4)c3)o2)cc1 [Example 96]
